Measurements: ChEMBL document CHEMBL1131875, “Selective inhibition of low affinity IgE receptor (CD23) processing: P1' bicyclomethyl substituents” (Bioorg Med Chem Lett, 1999)

What was measured:
Interstitial collagenase = target: T1, Interstitial collagenase (Homo sapiens, UniProt P03956); assay: Inhibitory activity against matrix metalloprotease (MMP-1)
T1 sequence (P03956 whole entry): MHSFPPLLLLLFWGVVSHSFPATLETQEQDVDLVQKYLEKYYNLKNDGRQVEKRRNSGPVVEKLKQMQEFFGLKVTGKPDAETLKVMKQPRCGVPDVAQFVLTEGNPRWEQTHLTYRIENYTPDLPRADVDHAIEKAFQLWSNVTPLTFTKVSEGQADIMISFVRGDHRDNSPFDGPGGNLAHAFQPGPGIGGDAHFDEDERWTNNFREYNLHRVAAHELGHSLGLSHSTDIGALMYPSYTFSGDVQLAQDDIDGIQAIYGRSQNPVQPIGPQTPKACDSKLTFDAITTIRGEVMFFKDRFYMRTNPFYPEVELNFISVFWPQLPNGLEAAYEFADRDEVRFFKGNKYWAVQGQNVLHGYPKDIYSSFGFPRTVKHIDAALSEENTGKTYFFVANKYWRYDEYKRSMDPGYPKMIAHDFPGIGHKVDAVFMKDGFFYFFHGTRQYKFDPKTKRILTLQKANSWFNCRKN

Stromelysin-1 [1] = target: T2, Stromelysin-1 (Homo sapiens, UniProt P08254); assay: Inhibition of matrix metalloprotease (MMP-3)
Target sequence in this assay (P08254 whole entry): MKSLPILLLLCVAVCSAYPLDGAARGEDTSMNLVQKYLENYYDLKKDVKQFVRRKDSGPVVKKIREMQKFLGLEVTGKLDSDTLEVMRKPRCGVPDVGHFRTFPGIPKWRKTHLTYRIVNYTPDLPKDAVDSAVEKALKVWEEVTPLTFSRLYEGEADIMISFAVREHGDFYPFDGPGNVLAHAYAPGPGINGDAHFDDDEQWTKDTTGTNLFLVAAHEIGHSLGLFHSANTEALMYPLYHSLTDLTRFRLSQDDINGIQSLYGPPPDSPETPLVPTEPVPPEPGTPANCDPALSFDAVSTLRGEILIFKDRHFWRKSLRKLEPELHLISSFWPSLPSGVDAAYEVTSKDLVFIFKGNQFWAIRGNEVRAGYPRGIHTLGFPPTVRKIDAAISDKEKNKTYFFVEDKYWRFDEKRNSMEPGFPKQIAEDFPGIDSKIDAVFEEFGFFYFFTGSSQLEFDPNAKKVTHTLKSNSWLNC

[2] = target: Matrix metalloproteinase-9 (Homo sapiens, UniProt P14780); assay: Inhibitory activity against matrix metalloprotease (MMP-9)
Chain of Matrix metalloproteinase-9 (P14780 whole entry): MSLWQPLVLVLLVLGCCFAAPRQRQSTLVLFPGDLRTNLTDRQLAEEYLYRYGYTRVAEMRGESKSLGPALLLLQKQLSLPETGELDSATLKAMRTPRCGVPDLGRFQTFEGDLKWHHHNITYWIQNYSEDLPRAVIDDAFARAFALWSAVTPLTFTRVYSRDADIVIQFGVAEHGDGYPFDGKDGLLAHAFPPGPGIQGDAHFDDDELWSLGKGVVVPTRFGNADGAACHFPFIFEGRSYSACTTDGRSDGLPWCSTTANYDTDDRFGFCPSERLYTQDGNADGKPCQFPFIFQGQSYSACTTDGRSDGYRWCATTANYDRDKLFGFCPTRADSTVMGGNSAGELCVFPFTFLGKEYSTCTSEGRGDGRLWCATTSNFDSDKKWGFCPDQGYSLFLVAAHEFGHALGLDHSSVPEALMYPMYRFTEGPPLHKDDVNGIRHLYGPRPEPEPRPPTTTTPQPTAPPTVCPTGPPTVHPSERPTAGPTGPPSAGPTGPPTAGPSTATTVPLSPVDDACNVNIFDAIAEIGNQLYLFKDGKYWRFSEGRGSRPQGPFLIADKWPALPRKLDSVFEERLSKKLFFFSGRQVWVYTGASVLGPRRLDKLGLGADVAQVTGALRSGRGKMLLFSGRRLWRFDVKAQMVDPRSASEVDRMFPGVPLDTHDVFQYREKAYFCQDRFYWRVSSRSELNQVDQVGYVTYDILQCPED

Stromelysin-1 [3] = target: T2, Stromelysin-1; assay: Inhibition of matrix metalloprotease (MMP-3) at 10 uM
Target sequence in this assay (P08254 100-477 limits assumed): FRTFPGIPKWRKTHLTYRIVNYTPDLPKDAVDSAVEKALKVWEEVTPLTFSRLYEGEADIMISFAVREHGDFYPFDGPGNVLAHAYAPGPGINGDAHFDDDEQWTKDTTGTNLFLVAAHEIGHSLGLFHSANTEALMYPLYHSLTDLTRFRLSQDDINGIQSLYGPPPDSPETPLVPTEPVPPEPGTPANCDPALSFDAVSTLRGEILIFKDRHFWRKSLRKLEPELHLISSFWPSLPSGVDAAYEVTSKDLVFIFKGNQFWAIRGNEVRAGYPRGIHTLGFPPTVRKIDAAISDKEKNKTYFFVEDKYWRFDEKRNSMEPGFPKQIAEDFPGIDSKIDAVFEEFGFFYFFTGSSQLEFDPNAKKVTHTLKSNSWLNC

| Structure (SMILES) | IC50 (Interstitial collagenase) [µM] | IC50 (Stromelysin-1 [1]) [µM] | IC50 [2] [µM] | inhibition (Stromelysin-1 [3]) [%] |
| --- | --- | --- | --- | --- |
| CC(C)(C)[C@H](NC(=O)C(Cc1cnc2ccccc2c1)C(O)C(=O)NO)C(N)=O (single isomer, unassigned) | 5 | 3 | 0.19 | – |
| CNC(=O)[C@@H](NC(=O)C(Cc1ccc2ccccc2c1)C(O)C(=O)NO)C(C)(C)C (single isomer, unassigned) | > 1 | – | – | – |
| CNC(=O)[C@H](Cc1ccccc1)NC(=O)C(Cc1ccc2ccccc2c1)C(O)C(=O)NO (single isomer, unassigned) | > 1 | – | – | – |
| NC(=O)[C@H](Cc1ccccc1)NC(=O)C(Cc1ccc2ccc(O)cc2c1)C(O)C(=O)NO (single isomer, unassigned) | > 10 | – | – | – |
| NC(=O)[C@H](Cc1ccccc1)NC(=O)[C@H](Cc1ccc2cc(F)ccc2c1)[C@H](O)C(=O)NO | > 10 | 3 | 0.85 | – |
| CC(C)(C)[C@H](NC(=O)C(Cc1ccc2ccccc2c1)C(O)C(=O)NO)C(N)=O (single isomer, unassigned) | > 10 | > 10 | 0.64 | – |
| NC(=O)[C@H](Cc1ccccc1)NC(=O)[C@H](Cc1ccc2ccc(F)cc2c1)[C@H](O)C(=O)NO | > 10 | – | – | – |
| CC(C)(C)[C@H](NC(=O)[C@H](Cc1ccc2ccc(F)cc2c1)[C@H](O)C(=O)NO)C(N)=O | > 10 | – | – | – |
| NC(=O)[C@H](Cc1ccccc1)NC(=O)C(Cc1ccc2ccccc2c1)C(O)C(=O)NO (single isomer, unassigned) | > 10 | – | – | – |
| O=C(C[C@@H](Cc1ccc2ccccc2c1)C(=O)N[C@@H](Cc1ccccc1)C(=O)NCc1ccccc1)NO | > 1 | – | – | – |

Continued, values first:

| IC50 (Interstitial collagenase) [µM] | IC50 (Stromelysin-1 [1]) [µM] | IC50 [2] [µM] | inhibition (Stromelysin-1 [3]) [%] | Structure (SMILES) |
| --- | --- | --- | --- | --- |
| 0.14 | – | – | – | NC(=O)[C@H](Cc1ccccc1)NC(=O)[C@H](Cc1cc2ccccc2s1)[C@H](O)C(=O)NO |
| 1.8 | – | 0.41 | 83 | CC(C)(C)[C@H](NC(=O)C(C[C@@H]1CCc2ccccc2C1)[C@H](O)C(=O)NO)C(N)=O (stereo not given in full) |
| < 0.1 | – | – | – | CNC(=O)[C@H](Cc1ccccc1)NC(=O)[C@H](Cc1cc2ccccc2o1)[C@H](O)C(=O)NO |
| 0.8 | 0.23 | 0.23 | – | CC(C)(C)[C@H](NC(=O)C(C[C@H]1CCc2ccccc2C1)[C@H](O)C(=O)NO)C(N)=O (stereo not given in full) |
| 0.5 | – | – | – | NC(=O)[C@H](Cc1ccccc1)NC(=O)[C@H](Cc1nc2ccccc2s1)[C@H](O)C(=O)NO |
